This is an account of results in patent US5597848A, “Benzenesulfonamide derivatives and use thereof” (Hokuriku Seiyaku Co., Ltd., priority 1992, dated 1997).

Assay [1] concerns the target T1, leukotriene D4 (Cavia porcellus, UniProt Q2NNR5).
T1 construct: tracheas were isolated from male Hartley guinea-pigs; from tissue; host or cells: isolated trachea of male Hartley guinea-pigs
T1 sequence (Q2NNR5 1-340): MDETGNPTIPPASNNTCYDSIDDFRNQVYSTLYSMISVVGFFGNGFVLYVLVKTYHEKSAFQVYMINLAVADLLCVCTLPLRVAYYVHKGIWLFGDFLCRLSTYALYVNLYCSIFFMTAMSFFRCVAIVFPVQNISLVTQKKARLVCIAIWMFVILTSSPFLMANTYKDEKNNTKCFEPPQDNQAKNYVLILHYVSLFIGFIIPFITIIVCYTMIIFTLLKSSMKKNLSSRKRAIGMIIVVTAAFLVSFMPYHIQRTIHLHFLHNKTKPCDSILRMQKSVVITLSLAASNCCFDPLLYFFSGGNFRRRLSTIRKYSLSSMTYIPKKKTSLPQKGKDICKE
Briefly: Leukotriene D4 antagonistic effect in isolated trachea (Schild method). The arrangement: species or system male Hartley guinea-pigs. The settings on record: isolated trachea, 30 min treatment, indomethacin 3×10^-6 M, Krebs 37° C. Here is the method: According to an ordinary method, tracheas were isolated from male Hartley guinea-pigs, and ring specimens of approximately […] length were prepared. These specimens were suspended isotonically in organ baths that contained Krebs solution at 37° C. under a resting tension of 0.5 g. After repeated contractions with acetylcholine (1×10^-6 M; Ovisot for injection, Daiichi Seiyaku), and the first concentration-response curves was obtained by cummulative applications of leukotriene D4 (ULTRA FINE) into the organ baths. After treatments with test compounds at adequate concentrations for 30 min, the second concentration-response curves were obtained in the same manner as first applications. pKB values were calculated using these two concentration-response curves according to the method of Schild [Pharmacological Review, Vol. 9, 242 (1957)]. Indomethacin (3×10^-6 M; Sigma) was added beforehand to the organ bath to eliminate possible affections by thromboxane A2 and prostaglandin produced by stimulus of leukotriene D4 [Japan J. Pharmacol., Vol. 60, 227 (1992)].

The target of assay [2] is T2, thromboxane A2 receptor (Cavia porcellus, UniProt A0A286Y4I8).
T2 construct: platelet-rich plasma; endogenous in cells; host or cells: guinea-pig platelets in platelet-rich plasma
T2 sequence (A0A286Y4I8 1-347): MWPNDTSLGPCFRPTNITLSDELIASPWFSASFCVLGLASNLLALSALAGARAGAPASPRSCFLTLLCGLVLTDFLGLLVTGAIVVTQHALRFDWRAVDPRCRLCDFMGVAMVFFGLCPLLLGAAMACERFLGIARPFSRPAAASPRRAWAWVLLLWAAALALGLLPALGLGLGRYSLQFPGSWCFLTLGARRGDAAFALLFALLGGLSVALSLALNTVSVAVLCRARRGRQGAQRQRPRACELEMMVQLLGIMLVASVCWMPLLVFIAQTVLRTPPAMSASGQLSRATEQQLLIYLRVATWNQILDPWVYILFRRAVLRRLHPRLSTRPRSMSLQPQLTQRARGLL
Briefly: Thromboxane A2 antagonistic effect: inhibition of U-46619-induced platelet aggregation in guinea-pig platelet-rich plasma. It counts as cell-based, guinea-pigs. The settings on record: guinea-pig PRP, U-46619 2 μg/ml, 2 min at 37° C.; read-out: IC50 (50% inhibition against platelet aggregation). The method, then:
Blood was collected from the abdominal aorta of guinea-pigs (about 400 g wt.) into 1/10 volume of 3.8% sodium citrate, and then platelet-rich plasma (PRP: 6×10^5 cells/μl) was obtained by centrifugation. A cuvette was filled with PRP 190 μl and set in an aggregometer (Hema Tracer I; Niko Bioscience). Incubation was carried out for 2 min. at 37° C. after the addition of 1 μl of dimethyl sulfoxide solution of test compounds. To the PRP, 10 μl of U-46619 (Cayman), a thromboxane A2 /prostaglandin H2 receptor agonist and potent platelet aggregation inducer, was added at the final concentration of 2 μg/ml, and platelet aggregation was measured by an aggregometer.

In assay [3] the test system is broncho-constriction induced by U-46619. Briefly: Inhibitory effect on broncho-constriction induced by U-46619 (Konzett-Roessler method, oral). It counts as in vivo, Male hartley guinea-pigs. The settings on record: 0.3 mg/kg orally, 2 hrs before U-46619 4 μg/kg. Here is the method: Airway resistance was evaluated according to the method of Konzett-Roessler[Naunyn-Schmiedberg's Arch. Exp. Path. Pharmak., Vol. 195, 71 (1940)]. Male hartley guinea-pigs (about 400 g wt.) were anesthetized with urethane (1.5 g/kg, i.p.) and ventilated by an artificial respirator (Model 683; Harvard). At that time, overflowed air volume above the pressure of about 12 cm H2 O was measured by using a sensor (Model 7020; Ugo basile) and the value was used as an index of broncho-constriction. 0.3 mg/kg (5 ml/kg) of test compounds suspended in 5% gum Arabic was administered orally to Guinea-pigs fasted beforehand for 24 hr. After 2 hrs, U-46619 (4 μg/kg; Cayman) was administered through the cervical vein, and then maximal response was measured. Inhibitory rates compared to the reference group were calculated based on the response rate normalized by the complete closure as 100%.

The test system of assay [4] is broncho-constriction induced by leukotriene D4. Nature of the assay: Inhibitory effect on broncho-constriction induced by leukotriene D4 (Konzett-Roessler method, oral). It counts as in vivo, male Hartley guinea-pig. The settings on record: Cavia porcellus, po; 30 mg/kg orally, leukotriene D4 1 μg/kg after 2 hr; indomethacin and propranolol pretreatment; read-out: Inhibition rate. The method, then: Airway resistance was evaluated according to the method of Konzett-Roessler[Naunyn-Schmiedberg's Arch. Exp. Path. Pharmak., Vol. 195, 71 (1940)]. After male Hartley guinea-pig fasted beforehand for 24 hr were anesthetized with urethane, overflowed air volume was measured under artificial ventilation as an index of broncho-constriction. 30 mg/kg (5 ml/kg) of test compounds suspended in 5% gum Arabic were administered orally to […]. Leukotriene D4 (1 μg/kg; ULTRA FINE) was administered through the cervical vein after 2 hr, and then values were measured at 2 min after the time when responses became maximum. Inhibitory rates compared to the control group were calculated based on the response rate normalized by the overflowed volume at complete closure as 100% broncho-constriction state. Indomethacin (2 mg/kg, i.v.) and propranolol (1 mg/kg, i.v.) were administered at 10 min and 5 min before the administration of leukotriene D4, respectively.

As a reminder, the Kb is the affinity of an antagonist, worked out from how it opposes an agonist. The low end stands for a more potent antagonist, the high end for a less potent antagonist. What is called IC50 is the concentration at which inhibition is half-maximal.

In assay [1], `C[C@H]1CC[C@H](C(NS(=O)(=O)c2ccc(Cl)cc2)c2ccc(CCCC(=O)O)cc2)CC1` (relative stereo) [Example 76, trans-4-[4-[(4-Chlorophenylsulfonylamino)(4-methylcyclohexyl)methyl]phenyl]butyric Acid] gave an antagonist dissociation constant (Kb) of 200 nM.
Still for that read-out and setting: as for `CCCCC[C@H]1CC[C@H](C(NS(=O)(=O)c2ccc(Cl)cc2)c2ccc(CCCC(=O)O)cc2)CC1` (relative stereo) [Example 77, trans-4-[4-[(4-Chlorophenylsulfonylamino)(4-pentylcyclohexyl)methyl]phenyl]butyric Acid], the figure is 631 nM.
As for `CCCCCC(NS(=O)(=O)c1ccc(Cl)cc1)c1ccc(CCCC(=O)O)cc1` (stereo not shown) [Example 67, 4-[4-[1-(4-Chlorophenylsulfonylamino)hexyl]phenyl]butyric Acid], the IC50 in assay [2] was 400 nM. In addition, the Inhibition rate in assay [3] turned out to be 86%. Further, in assay [4], the inhibition in vivo at 30 mg/kg was determined as 80%.
Regarding `CC(C)CCC(NS(=O)(=O)c1ccc(Cl)cc1)c1ccc(CCCC(=O)O)cc1` (stereo not shown) [Example 71, 4-[4-[1-(4-Chlorophenylsulfonylamino)-4-methylpentyl]phenyl]butyric Acid], in assay [2], the IC50 worked out at 400 nM. Moreover, the Kb in assay [1] is 200 nM. In addition, the inhibition in vivo at 30 mg/kg in assay [4] amounted to 68%.
With `O=C(O)CCCc1ccc(C(NS(=O)(=O)c2ccc(Cl)cc2)C2CCCCCC2)cc1` (stereo not shown) [Example 75, 4-[4-[(4-Chlorophenylsulfonylamino)cycloheptylmethyl]phenyl]butyric Acid], the IC50 in assay [2] is 320 nM. The compound further had a Kb in assay [1] of 398 nM.
`O=C(O)CCCc1ccc(C(CC2CCCC2)NS(=O)(=O)c2ccc(Cl)cc2)cc1` (stereo not shown) [Example 78, 4-[4-[1-(4-Chlorophenylsulfonylamino)-2-cyclopentylethyl]phenyl]butyric Acid]: the IC50 in assay [2] amounted to 320 nM. Moreover, in assay [1], the Kb was 1000 nM.
Take `O=C(O)CCCc1ccc(C(CC2CCCCC2)NS(=O)(=O)c2ccc(Cl)cc2)cc1` (stereo not shown) [Example 79, 4-[4-[1-(4-Chlorophenylsulfonylamino)-2-cyclohexylethyl]phenyl]butyric Acid]: in assay [2], the IC50 amounted to 320 nM. For the same compound, the Inhibition rate in assay [3] is 55%. Further, in assay [1], the Kb was 100 nM.
As for `O=C(O)CCCc1ccc(C(CCC2CCCCC2)NS(=O)(=O)c2ccc(Cl)cc2)cc1` (stereo not shown) [Example 80, 4-[4-[1-(4-Chlorophenylsulfonylamino)-3-cyclohexylpropyl]phenyl]butyric Acid], the IC50 in assay [2] was determined as 1000 nM. This compound had a Kb in assay [1] of 126 nM. The inhibition in vivo at 30 mg/kg in assay [4] amounted to 60%.
Compound `O=C(O)CCCc1ccc(C(CC23CC4CC(CC(C4)C2)C3)NS(=O)(=O)c2ccc(Cl)cc2)cc1` (stereo not shown) [Example 84, 4-[4-[2-(1-Adamantyl)-1-(4-chlorophenylsulfonylamino)ethyl]phenyl]butyric Acid] gave a Kb in assay [1] of 200 nM. This lies in the sub-micromolar range.
With `O=C(O)CCCc1ccc(C(CC2CC3CCC2C3)NS(=O)(=O)c2ccc(Cl)cc2)cc1` (stereo not shown) [Example 85, 4-[4-[1-(4-Chlorophenylsulfonylamino)-2-(2-norbornyl)ethyl]phenyl]butyric Acid], the IC50 in assay [2] is 400 nM. This compound showed an antagonist equilibrium constant (Kb) in assay [1] of 158 nM.
Regarding `O=C(O)CCCc1ccc(C(Cc2ccc(F)cc2)NS(=O)(=O)c2ccc(Cl)cc2)cc1` (stereo not shown) [Example 95, 4-[4-[1-(4-Chlorophenylsulfonylamino)-2-(4-fluorophenyl)ethyl]phenyl]butyric Acid], the IC50 in assay [2] worked out at 160 nM. Besides, the Kb in assay [1] is 501 nM.
As for `CCCCCCC(NS(=O)(=O)c1ccc(Cl)cc1)c1ccc(CCCC(=O)O)cc1` (stereo not shown) [Example 99, 4-[4-[1-(4-Chlorophenylsulfonylamino)heptyl]phenyl]butyric Acid], in assay [2], the IC50 worked out at 320 nM. In addition, in assay [1], the antagonist equilibrium constant (Kb) was 126 nM. The inhibition in vivo at 30 mg/kg in assay [4] was determined as 64%.
For `CCCCC(NS(=O)(=O)c1ccc(Cl)cc1)c1ccc(CCCCC(=O)O)cc1` (stereo not shown) [Example 102, 5-[4-[1-(4-Chlorophenylsulfonylamino)pentyl]phenyl]valeric Acid], the Kb in assay [1] is 200 nM. In addition, the inhibition in vivo at 30 mg/kg in assay [4] is 50%.
As to `CCCCCC(NS(=O)(=O)c1ccc(Br)cc1)c1ccc(CCCC(=O)O)cc1` (stereo not shown) [Example 104, 4-[4-[1-(4-Bromophenylsulfonylamino)hexyl]phenyl]butyric Acid], in assay [4], the inhibition in vivo at 30 mg/kg amounted to 83%.
`CCCCCC(NS(=O)(=O)c1ccc(F)cc1)c1ccc(CCCC(=O)O)cc1` (stereo not shown) [Example 105, 4-[4-[1-(4-Fluorophenylsulfonylamino)hexyl]phenyl]butyric Acid]: the inhibition in vivo at 30 mg/kg in assay [4] stood at 82%.
In assay [1], `CCCCCC(NS(=O)(=O)c1ccc(Cl)cc1)c1ccc(CCCCC(=O)O)cc1` (stereo not shown) [Example 106, 5-[4-[1-(4-Chlorophenylsulfonylamino)hexyl]phenyl]valeric Acid] had a Kb of 126 nM. Moreover, in assay [4], the inhibition in vivo at 30 mg/kg turned out to be 58%.
For the compound `CC(C)CCCC(NS(=O)(=O)c1ccc(Cl)cc1)c1ccc(CCCC(=O)O)cc1` (stereo not shown) [Example 107, 4-[4-[1-(4-Chlorophenylsulfonylamino)-5-methylhexyl]phenyl]butyric Acid], the IC50 in assay [2] worked out at 250 nM. The same compound showed an antagonist equilibrium constant (Kb) in assay [1] of 100 nM. Also, the inhibition in vivo at 30 mg/kg in assay [4] turned out to be 83%.
As to `CC(C)CCCCC(NS(=O)(=O)c1ccc(Cl)cc1)c1ccc(CCCC(=O)O)cc1` (stereo not shown) [Example 108, 4-[4-[1-(4-Chlorophenylsulfonylamino)-6-methylheptyl]phenyl]-butyric Acid], in assay [2], the IC50 stood at 500 nM. The same compound showed a Kb in assay [1] of 158 nM. For the same compound, the inhibition in vivo at 30 mg/kg in assay [4] came to 82%.
In the case of `O=C(O)CCCCc1ccc(C(CC2CCCCC2)NS(=O)(=O)c2ccc(Cl)cc2)cc1` (stereo not shown) [Example 113, 5-[4-[1-(4-Chlorophenylsulfonylamino)-2-cyclohexylethyl]phenyl]valeric Acid], the half-inhibitory concentration (IC50) in assay [2] is 400 nM. Also, the antagonist dissociation constant (Kb) in assay [1] is 39.8 nM.
Taken in the same sequence, the figures for `O=C(O)CCCc1ccc(C(CCCCCc2ccccc2)NS(=O)(=O)c2ccc(Cl)cc2)cc1` (stereo not shown) [Example 116, 4-[4-[1-(4-Chlorophenylsulfonylamino)-6-phenylhexyl]phenyl]butyric Acid] were 500 nM and 200 nM.
In assay [1], `CCCCc1ccc(CCC(NS(=O)(=O)c2ccc(Cl)cc2)c2ccc(CCCC(=O)O)cc2)cc1` (stereo not shown) [Example 117, 4-[4-[3-(4-Butylphenyl)-1-(4-chlorophenylsulfonylamino)propyl]phenyl]butyric Acid] showed a Kb of 251 nM. This counts as sub-micromolar.
